Measurements from patent US20050143354A1, “Association of an antithrombotic and aspirin” (priority 2002, published 2005).

Test system: arterial thrombosis in the guinea-pig
Assay: arterial thrombosis test in the guinea-pig (cyclic flow reductions after carotid artery lesion)
Type: in vivo
Settings: aspirin 2 mg/kg i.v. alone; not different from control animals
Description: This test is based on the model initially described by Roux et al. (Thromb Haemost 71: 252-256, 1994). The guinea-pigs are anaesthetised using ketamine+xylazine (90+12) mg.kg i.m.. The trachea is cannulated and spontaneous respiration by the animals maintained. The jugular vein is cannulated, allowing the intravenous administration of the compounds being tested. The carotid artery is isolated, and a Doppler probe is installed allowing the arterial blood flow to be measured. After stabilisation, a lesion to the artery wall is produced by means of a clip applied distally to the Doppler probe. Subsequent to that lesion, the blood flow decreases. When the flow reaches zero, the artery is lightly shaken, which allows the flow to be restored. The thrombosis process continues, leading again to the flow reducing and ceasing. The thrombotic phenomena accordingly result in cyclic flow reductions (CFR), which are observed over a period of 20 minutes. After that period, the animal is treated, or not, with compound (A), and the CFR are again observed for a period of 20 minutes. The experiments are carried out in control animals or in animals treated by the intravenous route with aspirin (2 mg/kg).
This study was carried out using the sodium salt of the (R) isomer of compound (A).

CC(=O)Oc1ccccc1C(=O)O [aspirin]
cyclic flow reductions (CFR): 8±1 CFR/20 min
